The record followed here is PubChem BioAssay (NCI).

Values joined by “and” are separate entries in the source; they are usually repeats but may differ in a detail not shown here. Equal values may be shown once.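 Dose response: 5 concentrations. Exposure: 48 h. Format: 96-well plates. Endpoint: linear interpolation; highest concentration if not reached. GI50 marks 50% less growth. TGI is the concentration that stops growth completely.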 Where only a bound is given, the exact number is not on record here.

Some test systems named below: NCI-H23 lung; IGROV1 ovarian; CAKI-1 renal; HOP-92 NSCLC; OVCAR-4 ovarian; HL-60(TB) leukemia; OVCAR-8 ovarian; NCI-H226 lung; NCI/ADR-RES ovarian; PC-3 prostate.
Experiment in all cases: growth of human tumour cells (NCI), 48 h

`N#Cc1c(N)oc2cc3c(C#N)c(N)oc3cc12`: the TGI in the experiment on NCI-H23 lung, in the experiment on IGROV1 ovarian, in the experiment with CAKI-1 renal, in the experiment on HOP-92 NSCLC, in the experiment on OVCAR-4 ovarian and in the experiment with HL-60(TB) leukemia was > 100 µM each time. Also, in the experiment on OVCAR-8 ovarian, the TGI was > 100 µM.

On to `O=C(CC1(O)C(=O)Nc2ccccc21)c1cccc(O)c1` (stereo not drawn), for which the TGI in the experiment with NCI-H23 lung, in the experiment on NCI-H226 lung, in the experiment on IGROV1 ovarian, in the experiment with CAKI-1 renal, with HOP-92 NSCLC and with OVCAR-4 ovarian was > 100 µM throughout. Besides, the TGI with HL-60(TB) leukemia and with OVCAR-8 ovarian was > 100 µM in each case.

In the case of `C#Cc1c(C)c(/C=C/C(C)=C\C(=O)OC)n(C)c1C`, the TGI in the experiment on NCI-H23 lung, in the experiment with NCI-H226 lung, with IGROV1 ovarian, with CAKI-1 renal, in the experiment with HOP-92 NSCLC and in the experiment with OVCAR-4 ovarian was > 100 µM throughout. The TGI with HL-60(TB) leukemia and in the experiment with OVCAR-8 ovarian was > 100 µM each time.

As for `CN(C)NC(=O)NC12CC3CC(CC(C3)C1)C2`, the TGI in the experiment on NCI-H23 lung, with NCI-H226 lung, with IGROV1 ovarian, with CAKI-1 renal, with HOP-92 NSCLC and in the experiment on OVCAR-4 ovarian was > 100 µM each time. Further, the TGI with HL-60(TB) leukemia and in the experiment with OVCAR-8 ovarian was > 100 µM each time.

As to `O=[N+]([O-])c1ccc(N=P(c2ccccc2)(c2ccccc2)c2ccccc2)n2nnnc12`, the TGI was > 100 µM in the experiment on NCI-H23 lung; > 100 µM with IGROV1 ovarian; > 100 µM with CAKI-1 renal; 67.5 µM in the experiment with HOP-92 NSCLC; 90.3 µM in the experiment with OVCAR-4 ovarian; > 100 µM in the experiment on HL-60(TB) leukemia. For the same molecule, the TGI in the experiment with OVCAR-8 ovarian is > 100 µM.

As for `COC1=CC(=O)C2(C=C1OC)OC[C@H]1Oc3c(ccc4c3C=CC(C)(C)O4)C(=O)[C@H]12` (stereo partly drawn), the TGI was 95.3 µM in the experiment on NCI-H23 lung; > 100 µM with IGROV1 ovarian; 44.3 µM with HOP-92 NSCLC; 44.6 µM with HL-60(TB) leukemia; > 100 µM in the experiment on OVCAR-8 ovarian.

For `COc1cccc(NC(=O)/C(CS(=O)(=O)CCC(C(C)=O)C(C)=O)=N\NC(C)(C)C)c1`, the TGI in the experiment on NCI-H23 lung, in the experiment with NCI-H226 lung, in the experiment on IGROV1 ovarian, with CAKI-1 renal, with HOP-92 NSCLC and with OVCAR-4 ovarian was > 100 µM each time. In addition, the TGI with HL-60(TB) leukemia and in the experiment on OVCAR-8 ovarian was > 100 µM throughout.

With `O=C(O)CN(CCN(CC(=O)O)CC(=O)O)CC(=O)O.[Cu+2].[Na+]`, the GI50 with NCI/ADR-RES ovarian, in the experiment on NCI-H23 lung, in the experiment with NCI-H226 lung, with PC-3 prostate, in the experiment on IGROV1 ovarian and with CAKI-1 renal was > 100 µM in each case. The GI50 in the experiment with OVCAR-4 ovarian, in the experiment on HL-60(TB) leukemia and in the experiment on OVCAR-8 ovarian was > 100 µM in each case. Moreover, the TGI in the experiment on NCI/ADR-RES ovarian, in the experiment on NCI-H23 lung, in the experiment with NCI-H226 lung, with PC-3 prostate, with IGROV1 ovarian and in the experiment on CAKI-1 renal was > 100 µM throughout. For the same molecule, the TGI in the experiment on OVCAR-4 ovarian, with HL-60(TB) leukemia and with OVCAR-8 ovarian was > 100 µM in each case.

Regarding `C=C1C(C)C2C(Cc3ccccc3)NC(=O)C23C(OC(C)=O)C=CC(C)(O)C(=O)C(C)C/C=C/C3C1O` (stereo not drawn), the GI50 was > 500 µM in the experiment with NCI/ADR-RES ovarian; 15.6 µM with NCI-H23 lung; 0.79 µM in the experiment on IGROV1 ovarian; 0.05 µM in the experiment with CAKI-1 renal; 0.171 µM in the experiment on HOP-92 NSCLC; 10.4 µM in the experiment on OVCAR-4 ovarian. For the same molecule, the GI50 with HL-60(TB) leukemia is 1.61 µM; in the experiment with OVCAR-8 ovarian, > 471 µM. Moreover, the TGI with NCI/ADR-RES ovarian was > 500 µM; with NCI-H23 lung it was 82.2 µM and 259 µM; with NCI-H226 lung it was 51.4 µM and > 500 µM; with CAKI-1 renal, 1.12 µM and 1.66 µM; in the experiment with HOP-92 NSCLC, 2.45 µM and 1.21 µM; in the experiment with OVCAR-4 ovarian it was 99.8 µM and > 500 µM. Moreover, the TGI with HL-60(TB) leukemia is 20.5 µM and 15.7 µM; in the experiment on OVCAR-8 ovarian, > 500 µM.

Take `COc1cc2c3c(c4cc(OC)c(OC)cc4c2cc1OC)CN1CCC[C@H]1C3`: the GI50 with NCI/ADR-RES ovarian is 0.111 µM and 0.0379 µM; in the experiment on NCI-H23 lung, 0.0406 µM and < 0.0123 µM; in the experiment on IGROV1 ovarian, 0.0433 µM and < 0.01 µM; in the experiment on HOP-92 NSCLC, 0.0366 µM and < 0.0105 µM; in the experiment on OVCAR-4 ovarian, 0.0419 µM and < 0.01 µM; in the experiment on HL-60(TB) leukemia, 0.0853 µM and < 0.0165 µM. The GI50 in the experiment on OVCAR-8 ovarian is 0.0381 µM and < 0.0103 µM. In addition, the TGI was 0.653 µM and 3.4 µM in the experiment with NCI-H23 lung; 1.06 µM in the experiment on NCI-H226 lung; 1.45 µM and 1.42 µM in the experiment with IGROV1 ovarian; 0.481 µM and 0.926 µM in the experiment on CAKI-1 renal; 1.34 µM and 0.695 µM in the experiment on HOP-92 NSCLC; 1.28 µM and 0.392 µM with OVCAR-4 ovarian. Further, in the experiment with OVCAR-8 ovarian, the TGI was > 34 µM.

For `Cc1nc2ccccc2c(=O)n1/N=C(\N=Nc1cc(Cl)ccc1Cl)c1ccc(N(C)C)cc1`, the TGI is > 100 µM in the experiment with NCI-H23 lung; > 100 µM in the experiment on IGROV1 ovarian; 79.8 µM with CAKI-1 renal; 56.5 µM in the experiment on HL-60(TB) leukemia; > 100 µM with OVCAR-8 ovarian.

As to `COc1cc([C@@H]2c3cc4c(cc3[C@@H](OC3OC5COC(C)OC5C(O)C3O)[C@H]3COC(=O)[C@H]23)OCO4)cc(OC)c1O` (stereo partly drawn), the TGI with NCI/ADR-RES ovarian is 178 µM and 500 µM and 650 µM; in the experiment on IGROV1 ovarian, 67.8 µM and 159 µM and 157 µM; in the experiment with CAKI-1 renal, 31.4 µM and 77.1 µM and 49.2 µM; in the experiment on HOP-92 NSCLC, 37.9 µM and 114 µM; with OVCAR-4 ovarian it was 124 µM and 500 µM and 292 µM; with OVCAR-8 ovarian, 117 µM and 500 µM and 156 µM. The GI50 in the experiment on PC-3 prostate is 12.9 µM and 7.68 µM.

Turning to `COc1cc(OC)c(/C=C/S(=O)(=O)Cc2ccc(OC)c(N)n2)c(OC)c1`, the GI50 is < 0.0247 µM in the experiment on NCI-H23 lung; < 0.01 µM with PC-3 prostate; < 0.0122 µM in the experiment with IGROV1 ovarian; < 0.01 µM in the experiment on CAKI-1 renal; 0.093 µM in the experiment on HOP-92 NSCLC; 0.0272 µM in the experiment on OVCAR-4 ovarian. Further, the GI50 in the experiment with HL-60(TB) leukemia was < 0.01 µM; in the experiment on OVCAR-8 ovarian it was < 0.018 µM. For the same molecule, the TGI in the experiment with NCI-H23 lung, in the experiment on NCI-H226 lung, in the experiment on PC-3 prostate, in the experiment with IGROV1 ovarian, with CAKI-1 renal and with HOP-92 NSCLC was > 100 µM in each case. Further, the TGI with OVCAR-4 ovarian was > 100 µM; in the experiment with HL-60(TB) leukemia it was < 0.0273 µM; in the experiment on OVCAR-8 ovarian, > 100 µM.
